We go through 7 compounds from US20230143604A1, “QW DOSING OF GIP RECEPTOR AGONIST PEPTIDE COMPOUNDS AND USES THEREOF” (TAKEDA PHARMACEUTICAL COMPANY LIMITED, priority 2020, published 2023).

One data set deals with C57BL/6J mice. The experiment in a line: Oral glucose tolerance test (OGTT). It counts as in vivo. The conditions noted are these: 3 nmol/kg s.c., 24 hours before glucose loading. How it is done:
An oral glucose tolerance test (OGTT) was carried out using C57BL/6J mice with a 50% dextrose solution dosed at 5 ml/kg. Testing concentrations of 0.1 nmol/kg, 0.3 nmmol/kg, 3 nmol/kg or 10 nmol/kg were selected depending on the peptide. Each peptide or a vehicle (control group) was subcutaneously administered 24 hours (unless shown otherwise) before glucose loading and the blood glucose was measured at 0, 15, 30, and 60 minutes after glucose dosing.
% inhibition=(1−(AUC cpd−AUC naïve/AUC veh−AUC naïve))×100.

Data set [1] is described as follows: Solubility in phosphate buffer pH 7.4. The method, boiled down: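 Solubility at pH 7.4 determined by stepwise addition of 200 mM phosphate buffer in 100 μL increments to 3 mg peptide, mixing briefly each time, until no insoluble material remained, then measured by liquid chromatography.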
Setting [2] is: pH 7.4, aqueous buffer, pH 7.4 Phosphate Buffer - Solubility, 200 mM Phosphate buffer pH 7.4.
Where [3] appears, read: pH 7.4, solubility in phosphate buffer at pH 7.4, 200 mM phosphate buffer pH 7.4.

The solubility is how much of the substance goes into solution per volume. Low values mean a poorly soluble substance, high ones a readily soluble substance. On to `CC[C@H](C)[C@H](NC(=O)[C@H](Cc1ccccc1)NC(=O)[C@@H](NC(=O)CNC(=O)[C@H](CCC(=O)O)NC(=O)C(C)(C)NC(=O)[C@H](Cc1ccc(O)cc1)NC)[C@@H](C)O)C(=O)N[C@@H](CO)C(=O)N[C@@H](CC(=O)O)C(=O)N[C@@H](Cc1ccc(O)cc1)C(=O)N[C@@H](CO)C(=O)N[C@H](C(=O)NC(C)(C)C(=O)N[C@@H](CCCCNC(=O)CNC(=O)CNC(=O)CNC(=O)CNC(=O)CNC(=O)CCCCCCCCCCCCCCCCC(=O)O)C(=O)N[C@@H](CC(=O)O)C(=O)N[C@@H](CCCNC(=N)N)C(=O)NC(C)(C)C(=O)N[C@@H](C)C(=O)N[C@@H](CCC(N)=O)C(=O)NC(C)(C)C(=O)N[C@@H](CC(=O)O)C(=O)N[C@@H](Cc1ccccc1)C(=O)N[C@H](C(=O)N[C@@H](CC(N)=O)C(=O)N[C@@H](Cc1c[nH]c2ccccc12)C(=O)N[C@@H](CC(C)C)C(=O)N[C@@H](CC(C)C)C(=O)N[C@@H](C)C(=O)N[C@@H](CCC(N)=O)C(=O)N[C@@H](CO)C(=O)N1CCC[C@H]1C(=O)N[C@@H](CO)C(=O)N[C@@H](CO)C(=O)NCC(=O)N[C@@H](C)C(=O)N1CCC[C@H]1C(=O)N1CCC[C@H]1C(=O)N1CCC[C@H]1C(=O)N[C@@H](CO)C(=O)O)C(C)C)[C@@H](C)CC` [Compound 47], for which the “Oral Glucose Tolerance Test Percent decrease in blood glucose AUC (%) over 60 mins” value in the data set on C57BL/6J mice is 48% (3 nmol/kg). The solubility in data set [1] (setting [2]) is not below 30 mg/mL; in data set [1] (setting [3]) it was not below 15 mg/mL.

As for `CC[C@H](C)[C@H](NC(=O)[C@H](CO)NC(=O)[C@H](Cc1ccc(O)cc1)NC(=O)[C@H](CC(=O)O)NC(=O)[C@H](CO)NC(=O)[C@@H](NC(=O)[C@H](Cc1ccccc1)NC(=O)[C@@H](NC(=O)CNC(=O)[C@H](CCC(=O)O)NC(=O)C(C)(C)NC(=O)[C@H](Cc1ccc(O)cc1)NC)[C@@H](C)O)[C@@H](C)CC)C(=O)N[C@@H](C)C(=O)N[C@@H](CC(C)C)C(=O)N[C@@H](CC(=O)O)C(=O)N[C@@H](CCCNC(=N)N)C(=O)N[C@@H](CCCCNC(=O)CNC(=O)CNC(=O)CNC(=O)CNC(=O)CNC(=O)CCCCCCCCCCCCCCCCC(=O)O)C(=O)N[C@@H](C)C(=O)N[C@@H](CCC(N)=O)C(=O)NC(C)(C)C(=O)N[C@@H](CC(=O)O)C(=O)N[C@@H](Cc1ccccc1)C(=O)N[C@H](C(=O)N[C@@H](CC(N)=O)C(=O)N[C@@H](Cc1c[nH]c2ccccc12)C(=O)N[C@@H](CC(C)C)C(=O)N[C@@H](CC(C)C)C(=O)N[C@@H](C)C(=O)N[C@@H](CCC(N)=O)C(=O)N[C@@H](CCCNC(=N)N)C(=O)N1CCC[C@H]1C(=O)N[C@@H](CO)C(=O)N[C@@H](CO)C(=O)NCC(=O)N[C@@H](C)C(=O)N1CCC[C@H]1C(=O)N1CCC[C@H]1C(=O)N1CCC[C@H]1C(=O)N[C@@H](CO)C(=O)O)C(C)C` [Compound 51], in the data set on C57BL/6J mice, the “Oral Glucose Tolerance Test Percent decrease in blood glucose AUC (%) over 60 mins” value is given as 50% (3 nmol/kg). Also, the solubility in data set [1] (setting [2]) is not below 30 mg/mL; in data set [1] (setting [3]), not below 15 mg/mL.

In the case of `CC[C@H](C)[C@H](NC(=O)[C@H](Cc1ccccc1)NC(=O)[C@@H](NC(=O)CNC(=O)[C@H](CCC(=O)O)NC(=O)C(C)(C)NC(=O)[C@H](Cc1ccc(O)cc1)NC)[C@@H](C)O)C(=O)N[C@@H](CO)C(=O)N[C@@H](CC(=O)O)C(=O)N[C@@H](Cc1ccc(O)cc1)C(=O)N[C@@H](CO)C(=O)N[C@H](C(=O)NC(C)(C)C(=O)N[C@@H](CCCCNC(=O)CNC(=O)CNC(=O)CNC(=O)CNC(=O)CNC(=O)CCCCCCCCCCCCCCCCC(=O)O)C(=O)N[C@@H](CC(=O)O)C(=O)N[C@@H](CCCNC(=N)N)C(=O)NC(C)(C)C(=O)N[C@@H](C)C(=O)N[C@@H](CCC(N)=O)C(=O)NC(C)(C)C(=O)N[C@@H](CC(=O)O)C(=O)N[C@@H](Cc1ccccc1)C(=O)N[C@H](C(=O)N[C@@H](CC(N)=O)C(=O)N[C@@H](Cc1c[nH]c2ccccc12)C(=O)N[C@@H](CC(C)C)C(=O)N[C@@H](CC(C)C)C(=O)N[C@@H](C)C(=O)N[C@@H](CCC(N)=O)C(=O)N[C@@H](CCCNC(=N)N)C(=O)N1CCC[C@H]1C(=O)N[C@@H](CO)C(=O)N[C@@H](CO)C(=O)NCC(=O)N[C@@H](C)C(=O)N1CCC[C@H]1C(=O)N1CCC[C@H]1C(=O)N1CCC[C@H]1C(=O)N[C@@H](CO)C(=O)O)C(C)C)[C@@H](C)CC` [Compound 54], in the data set with C57BL/6J mice, the “Oral Glucose Tolerance Test Percent decrease in blood glucose AUC (%) over 60 mins” value is listed as 43% (3 nmol/kg). Also, the solubility in data set [1] (setting [2]) was not below 30 mg/mL; in data set [1] (setting [3]), not below 15 mg/mL.

Consider `CC[C@H](C)[C@H](NC(=O)[C@H](CO)NC(=O)[C@H](Cc1ccc(O)cc1)NC(=O)[C@H](CC(=O)O)NC(=O)[C@H](CO)NC(=O)[C@@H](NC(=O)[C@H](Cc1ccccc1)NC(=O)[C@@H](NC(=O)CNC(=O)[C@H](CCC(=O)O)NC(=O)C(C)(C)NC(=O)[C@H](Cc1ccc(O)cc1)NC)[C@@H](C)O)[C@@H](C)CC)C(=O)N[C@@H](C)C(=O)N[C@@H](CCCCNC(=O)CNC(=O)CNC(=O)CNC(=O)CNC(=O)CNC(=O)CCCCCCCCCCCCCCCCC(=O)O)C(=O)N[C@@H](CC(=O)O)C(=O)N[C@@H](CCCNC(=N)N)C(=O)NC(C)(C)C(=O)N[C@@H](C)C(=O)N[C@@H](CCC(N)=O)C(=O)NC(C)(C)C(=O)N[C@@H](CC(=O)O)C(=O)N[C@@H](Cc1ccccc1)C(=O)N[C@H](C(=O)N[C@@H](CC(N)=O)C(=O)N[C@@H](Cc1c[nH]c2ccccc12)C(=O)N[C@@H](CC(C)C)C(=O)N[C@@H](CC(C)C)C(=O)N[C@@H](C)C(=O)N[C@@H](CCC(N)=O)C(=O)N[C@@H](CCCNC(=N)N)C(=O)NCC(=O)O)C(C)C` [Compound 63], for which the “Oral Glucose Tolerance Test Percent decrease in blood glucose AUC (%) over 60 mins” value in the data set on C57BL/6J mice was 41% (3 nmol/kg). Further, the solubility in data set [1] (pH 7.4) was not below 15 mg/mL.

`CC[C@H](C)[C@H](NC(=O)[C@H](CO)NC(=O)[C@H](Cc1ccc(O)cc1)NC(=O)[C@H](CC(=O)O)NC(=O)[C@H](CO)NC(=O)[C@@H](NC(=O)[C@H](Cc1ccccc1)NC(=O)[C@@H](NC(=O)CNC(=O)[C@H](CCC(=O)O)NC(=O)C(C)(C)NC(=O)[C@H](Cc1ccc(O)cc1)NC)[C@@H](C)O)[C@@H](C)CC)C(=O)N[C@@H](C)C(=O)N[C@@H](CCCCNC(=O)CNC(=O)CNC(=O)CNC(=O)CNC(=O)CNC(=O)CCCCCCCCCCCCCCCCC(=O)O)C(=O)N[C@@H](CC(=O)O)C(=O)N[C@@H](CCCNC(=N)N)C(=O)NC(C)(C)C(=O)N[C@@H](C)C(=O)N[C@@H](CCC(N)=O)C(=O)NC(C)(C)C(=O)N[C@@H](CC(=O)O)C(=O)N[C@@H](Cc1ccccc1)C(=O)N[C@H](C(=O)N[C@@H](CC(N)=O)C(=O)N[C@@H](Cc1c[nH]c2ccccc12)C(=O)N[C@@H](CC(C)C)C(=O)N[C@@H](CC(C)C)C(=O)N[C@@H](C)C(=O)N[C@@H](CCC(N)=O)C(=O)N[C@@H](CCCNC(=N)N)C(=O)N1CCC[C@H]1C(=O)N[C@@H](CO)C(=O)N[C@@H](CO)C(=O)NCC(=O)O)C(C)C` [Compound 70]: the “Oral Glucose Tolerance Test Percent decrease in blood glucose AUC (%) over 60 mins” value in the data set with C57BL/6J mice is 56% (3 nmol/kg). The solubility in data set [1] (pH 7.4) was not below 15 mg/mL; in data set [1] (pH 7.4, aqueous buffer), not below 30 mg/mL.

As to `CC[C@H](C)[C@H](NC(=O)[C@H](Cc1ccccc1)NC(=O)[C@@H](NC(=O)CNC(=O)[C@H](CCC(=O)O)NC(=O)C(C)(C)NC(=O)[C@H](Cc1ccc(O)cc1)NC)[C@@H](C)O)C(=O)N[C@@H](CO)C(=O)N[C@@H](CC(=O)O)C(=O)N[C@@H](Cc1ccc(O)cc1)C(=O)N[C@@H](CO)C(=O)N[C@H](C(=O)NC(C)(C)C(=O)N[C@@H](CCCCNC(=O)CNC(=O)CNC(=O)CNC(=O)CNC(=O)CNC(=O)CCCCCCCCCCCCCCCCC(=O)O)C(=O)N[C@@H](CC(=O)O)C(=O)N[C@@H](CCCNC(=N)N)C(=O)NC(C)(C)C(=O)N[C@@H](C)C(=O)N[C@@H](CCC(N)=O)C(=O)NC(C)(C)C(=O)N[C@@H](CC(N)=O)C(=O)N[C@@H](Cc1ccccc1)C(=O)N[C@H](C(=O)N[C@@H](CC(N)=O)C(=O)N[C@@H](Cc1c[nH]c2ccccc12)C(=O)N[C@@H](CC(C)C)C(=O)N[C@@H](CC(C)C)C(=O)N[C@@H](C)C(=O)N[C@@H](CCC(N)=O)C(=O)N[C@@H](CO)C(=O)N1CCC[C@H]1C(=O)N[C@@H](CO)C(=O)N[C@@H](CO)C(=O)NCC(=O)N[C@@H](C)C(=O)N1CCC[C@H]1C(=O)N1CCC[C@H]1C(=O)N1CCC[C@H]1C(=O)N[C@@H](CO)C(=O)O)C(C)C)[C@@H](C)CC` [Compound 96], in the data set with C57BL/6J mice, the “Oral Glucose Tolerance Test Percent decrease in blood glucose AUC (%) over 60 mins” value is listed as 80% (3 nmol/kg). For the same compound, the solubility in data set [1] (setting [2]) is not below 60 mg/mL; in data set [1] (setting [3]) it was not below 15 mg/mL.

Consider `CC[C@H](C)[C@H](NC(=O)[C@H](CO)NC(=O)[C@H](Cc1ccc(O)cc1)NC(=O)[C@H](CC(=O)O)NC(=O)[C@H](CO)NC(=O)[C@@H](NC(=O)[C@H](Cc1ccccc1)NC(=O)[C@@H](NC(=O)CNC(=O)[C@H](CCC(=O)O)NC(=O)C(C)(C)NC(=O)[C@H](Cc1ccc(O)cc1)NC)[C@@H](C)O)[C@@H](C)CC)C(=O)N[C@@H](C)C(=O)N[C@@H](CCCCNC(=O)CNC(=O)CNC(=O)CNC(=O)CNC(=O)CNC(=O)CCCCCCCCCCCCCCCCCCC(=O)O)C(=O)N[C@@H](CC(=O)O)C(=O)N[C@@H](CCCNC(=N)N)C(=O)NC(C)(C)C(=O)N[C@@H](C)C(=O)N[C@@H](CCC(N)=O)C(=O)NC(C)(C)C(=O)N[C@@H](CC(=O)O)C(=O)N[C@@H](Cc1ccccc1)C(=O)N[C@H](C(=O)N[C@@H](CC(N)=O)C(=O)N[C@@H](Cc1c[nH]c2ccccc12)C(=O)N[C@@H](CC(C)C)C(=O)N[C@@H](CC(C)C)C(=O)N[C@@H](C)C(=O)N[C@@H](CCC(N)=O)C(=O)N[C@@H](CO)C(=O)N1CCC[C@H]1C(=O)NCC(=O)O)C(C)C` [Compound 111], for which the “Oral Glucose Tolerance Test Percent decrease in blood glucose AUC (%) over 60 mins” value in the data set with C57BL/6J mice is given as 44% (3 nmol/kg). Also, the solubility in data set [1] (pH 7.4) is not below 15 mg/mL; in data set [1] (pH 7.4, aqueous buffer), not below 30 mg/mL.
